According to publication PMC7438494 (Communications Biology, 2020):
Values joined by “and” are separate entries in the source; they are usually repeats but may differ in a detail not shown here. Equal values may be shown once. Read-outs that look alike come from different tables or passages of the source.

Target: human ATP synthase (Homo sapiens, UniProt P00846+P05496)
Experiment: biochemical
Assay type: biochemical
Settings: for cyanide sensitive ATP produced, nmol/min/mg / cyanide sensitive ATP produced, pmol/min/mg: 60 min
[1] = BDQ 5e-6 uM, […], frozen human mito, BDQ in DMSO
[2] = BDQ 5e-6 uM, cyanide sensitive, frozen human mito, BDQ in DMSO
[3] = BDQ 5e-5 uM, […], frozen human mito, BDQ in DMSO
[4] = BDQ 5e-5 uM, cyanide sensitive, frozen human mito, BDQ in DMSO
[5] = BDQ 0.0005 uM, […], frozen human mito, BDQ in DMSO
[6] = BDQ 0.0005 uM, cyanide sensitive, frozen human mito, BDQ in DMSO
[7] = BDQ 0.0005 uM, cyanide sensitive, human
[8] = BDQ 0.005 uM, […], frozen human mito, BDQ in DMSO
[9] = BDQ 0.005 uM, cyanide sensitive, frozen human mito, BDQ in DMSO
[10] = BDQ 0.005 uM, cyanide sensitive, human
[11] = BDQ 0.05 uM, cyanide sensitive, human
[12] = BDQ 0.1 uM, […], frozen human mito, BDQ in DMSO
[13] = BDQ 0.1 uM, cyanide sensitive, frozen human mito, BDQ in DMSO
[14] = BDQ 0.1 uM, cyanide sensitive, human
[15] = BDQ 0.2 uM, […], frozen human mito, BDQ in DMSO
[16] = BDQ 0.2 uM, cyanide sensitive, frozen human mito, BDQ in DMSO
[17] = BDQ 0.2 uM, cyanide sensitive, human
[18] = BDQ 0.5 uM, […], frozen human mito, BDQ in DMSO
[19] = BDQ 0.5 uM, cyanide sensitive, frozen human mito, BDQ in DMSO

COc1nc2ccc(Br)cc2cc1[C@@H](c1ccccc1)[C@@](O)(CCN(C)C)c1cccc2ccccc12 [BDQ, Bedaquiline]
ATP synthesis: 7.2 nmol/min/mg
inhibition at 0.85 µM: 46%
% activity, cyanide sensitive [1]: 78.2096%
% inhibition, cyanide sensitive [1]: 21.7904%
ATP produced, nmol/min/mg [1]: 6.85 nmol/min/mg
ATP produced, pmol/min/mg [1]: 6850.84 pmol/min/mg
cyanide sensitive ATP produced, nmol/min/mg [2]: 5.63 nmol/min/mg
cyanide sensitive ATP produced, pmol/min/mg [2]: 5632.76 pmol/min/mg
Cyanide sensitive ATP synthesis (BDQ 5e-6 uM, cyanide sensitive, human): 6.1 nmol/min/mg and 8.3 nmol/min/mg
% activity, cyanide sensitive [3]: 74.3127%
% inhibition, cyanide sensitive [3]: 25.6873%
ATP produced, nmol/min/mg [3]: 6.57 nmol/min/mg
ATP produced, pmol/min/mg [3]: 6570.19 pmol/min/mg
cyanide sensitive ATP produced, nmol/min/mg [4]: 5.35 nmol/min/mg
cyanide sensitive ATP produced, pmol/min/mg [4]: 5352.10 pmol/min/mg
Cyanide sensitive ATP synthesis (BDQ 5e-5 uM, cyanide sensitive, human): 5.6 nmol/min/mg and 8.1 nmol/min/mg
% activity [5]: 84.5005%
% inhibition [5]: 15.4995%
ATP produced, nmol/min/mg [5]: 7.12 nmol/min/mg
ATP produced, pmol/min/mg [5]: 7115.12 pmol/min/mg
activity at 0.0005 µM (BDQ 0.0005 uM, […], frozen human mito, BDQ in DMSO, read-out: % activity): 84.5%
activity at 0.0005 µM (BDQ 0.0005 uM, […], frozen human mito, BDQ in DMSO, read-out: % activity, cyanide sensitive): 81.9%
inhibition at 0.0005 µM (BDQ 0.0005 uM, […], frozen human mito, BDQ in DMSO, read-out: % inhibition): 15.5%
inhibition at 0.0005 µM (BDQ 0.0005 uM, […], frozen human mito, BDQ in DMSO, read-out: % inhibition, cyanide sensitive): 18.1%
cyanide sensitive ATP produced, nmol/min/mg [6]: 5.90 nmol/min/mg
cyanide sensitive ATP produced, pmol/min/mg [6]: 5897.03 pmol/min/mg
Cyanide sensitive ATP synthesis [7]: 7.7 nmol/min/mg and 4.7 nmol/min/mg and 7.8 nmol/min/mg
cyanide sensitive % activity [7]: 71.1%
activity at 0.0005 µM (BDQ 0.0005 uM, cyanide sensitive, human, read-out: cyanide sensitive % activity): 81.5%
inhibition at 0.0005 µM (BDQ 0.0005 uM, cyanide sensitive, human, read-out: cyanide sensitive % inhibition): 18.5%
% activity [8]: 99.3902%
% inhibition [8]: 0.6098%
ATP produced, nmol/min/mg [8]: 8.37 nmol/min/mg
ATP produced, pmol/min/mg [8]: 8368.87 pmol/min/mg
activity at 0.005 µM (BDQ 0.005 uM, […], frozen human mito, BDQ in DMSO, read-out: % activity): 99.4%
activity at 0.005 µM (BDQ 0.005 uM, […], frozen human mito, BDQ in DMSO, read-out: % activity, cyanide sensitive): 99.3%
inhibition at 0.005 µM (BDQ 0.005 uM, […], frozen human mito, BDQ in DMSO, read-out: % inhibition): 0.6%
inhibition at 0.005 µM (BDQ 0.005 uM, […], frozen human mito, BDQ in DMSO, read-out: % inhibition, cyanide sensitive): 0.713%
cyanide sensitive ATP produced, nmol/min/mg [9]: 7.15 nmol/min/mg
cyanide sensitive ATP produced, pmol/min/mg [9]: 7150.78 pmol/min/mg
Cyanide sensitive ATP synthesis [10]: 8.3 nmol/min/mg and 4.6 nmol/min/mg and 7.9 nmol/min/mg
cyanide sensitive % activity [10]: 72.3%
activity at 0.005 µM (BDQ 0.005 uM, cyanide sensitive, human, read-out: cyanide sensitive % activity): 88.5%
Cyanide sensitive ATP synthesis [11]: 6.8 nmol/min/mg and 4.7 nmol/min/mg and 3.8 nmol/min/mg
cyanide sensitive % activity [11]: 71.8% and 64.1% and 43.8%
cyanide sensitive % inhibition [11]: 28.2% and 35.9% and 56.2%
% activity [12]: 65.6953%
% inhibition [12]: 34.3047%
ATP produced, nmol/min/mg [12]: 5.53 nmol/min/mg
ATP produced, pmol/min/mg [12]: 5531.68 pmol/min/mg
activity at 0.1 µM (BDQ 0.1 uM, […], frozen human mito, BDQ in DMSO, read-out: % activity): 65.7%
activity at 0.1 µM (BDQ 0.1 uM, […], frozen human mito, BDQ in DMSO, read-out: % activity, cyanide sensitive): 59.9%
inhibition at 0.1 µM (BDQ 0.1 uM, […], frozen human mito, BDQ in DMSO, read-out: % inhibition): 34.3%
inhibition at 0.1 µM (BDQ 0.1 uM, […], frozen human mito, BDQ in DMSO, read-out: % inhibition, cyanide sensitive): 40.1%
cyanide sensitive ATP produced, nmol/min/mg [13]: 4.31 nmol/min/mg
cyanide sensitive ATP produced, pmol/min/mg [13]: 4313.60 pmol/min/mg
Cyanide sensitive ATP synthesis [14]: 8.1 nmol/min/mg and 6.1 nmol/min/mg and 5.4 nmol/min/mg and 6.3 nmol/min/mg and 7.4 nmol/min/mg
cyanide sensitive % activity [14]: 86.0% and 84.3% and 62.0% and 71.2% and 67.2%
% activity [15]: 69.7127%
% inhibition [15]: 30.2873%
ATP produced, nmol/min/mg [15]: 5.87 nmol/min/mg
ATP produced, pmol/min/mg [15]: 5869.95 pmol/min/mg
activity at 0.2 µM (BDQ 0.2 uM, […], frozen human mito, BDQ in DMSO, read-out: % activity): 69.7%
activity at 0.2 µM (BDQ 0.2 uM, […], frozen human mito, BDQ in DMSO, read-out: % activity, cyanide sensitive): 64.6%
inhibition at 0.2 µM (BDQ 0.2 uM, […], frozen human mito, BDQ in DMSO, read-out: % inhibition): 30.3%
inhibition at 0.2 µM (BDQ 0.2 uM, […], frozen human mito, BDQ in DMSO, read-out: % inhibition, cyanide sensitive): 35.4%
cyanide sensitive ATP produced, nmol/min/mg [16]: 4.65 nmol/min/mg
cyanide sensitive ATP produced, pmol/min/mg [16]: 4651.87 pmol/min/mg
Cyanide sensitive ATP synthesis [17]: 5.6 nmol/min/mg and 4.0 nmol/min/mg and 5.2 nmol/min/mg and 4.4 nmol/min/mg and 5.1 nmol/min/mg
cyanide sensitive % activity [17]: 55.4% and 59.9% and 49.8% and 46.9%
cyanide sensitive % inhibition [17]: 44.6% and 40.1% and 50.2% and 53.1%
activity at 0.2 µM (BDQ 0.2 uM, cyanide sensitive, human, read-out: cyanide sensitive % activity): 59.5%
inhibition at 0.2 µM (BDQ 0.2 uM, cyanide sensitive, human, read-out: cyanide sensitive % inhibition): 40.5%
% activity [18]: 36.7347%
% inhibition [18]: 63.2653%
ATP produced, nmol/min/mg [18]: 3.09 nmol/min/mg
ATP produced, pmol/min/mg [18]: 3093.14 pmol/min/mg
activity at 0.5 µM (BDQ 0.5 uM, […], frozen human mito, BDQ in DMSO, read-out: % activity): 36.7%
activity at 0.5 µM (BDQ 0.5 uM, […], frozen human mito, BDQ in DMSO, read-out: % activity, cyanide sensitive): 26%
inhibition at 0.5 µM (BDQ 0.5 uM, […], frozen human mito, BDQ in DMSO, read-out: % inhibition): 63.3%
inhibition at 0.5 µM (BDQ 0.5 uM, […], frozen human mito, BDQ in DMSO, read-out: % inhibition, cyanide sensitive): 74%
cyanide sensitive ATP produced, nmol/min/mg [19]: 1.88 nmol/min/mg
cyanide sensitive ATP produced, pmol/min/mg [19]: 1875.05 pmol/min/mg
